# In the NIST ThermoML archive (doi:10.1021/je049572f):
# Values joined by “and” are separate entries in the source; they are usually repeats but may differ in a detail not shown here. Equal entries are not always repeated. ± gives the expanded uncertainty stated by the source.
# Key:
# [1] = 101.33 kPa, Liquid
# [2] = xn = mol fraction of the nth substance listed; details: 101.33 kPa, Liquid
Structure (SMILES),mass density ([1]; 303.15 K),viscosity ([1]; 303.15 K),mass density ([1]; 313.15 K),viscosity ([1]; 313.15 K),mass density ([1]; 323.15 K),viscosity ([1]; 323.15 K),mass density ([1]; 333.15 K),viscosity ([1]; 333.15 K),mass density ([1]; 343.15 K),viscosity ([1]; 343.15 K),mass density ([1]; 353.15 K),viscosity ([1]; 353.15 K),other results
CN1CCCC1=O [N-methylpyrrolidone],1023.47 ± 3.2 kg/m3,1.554 ± 0.053 mPa·s,1014.55 ± 3.1 kg/m3,1.332 ± 0.046 mPa·s,1005.66 ± 3 kg/m3,1.16 ± 0.04 mPa·s,996.71 ± 2.9 kg/m3,1.022 ± 0.036 mPa·s,987.75 ± 3 kg/m3,0.908 ± 0.032 mPa·s,978.76 ± 3 kg/m3,0.813 ± 0.029 mPa·s,–
CN1CCCC1=O [N-methylpyrrolidone] + CCc1ccccc1,–,–,–,–,–,–,–,–,–,–,–,–,"mass density ([2]; 303.15 K, x2 = 0): 1023.47 ± 3.2 kg/m3; viscosity ([2]; 303.15 K, x2 = 0): 1.554 ± 0.053 mPa·s; mass density ([2]; 313.15 K, x2 = 0): 1014.55 ± 3.1 kg/m3; viscosity ([2]; 313.15 K, x2 = 0): 1.332 ± 0.046 mPa·s; mass density ([2]; 323.15 K, x2 = 0): 1005.66 ± 3 kg/m3; viscosity ([2]; 323.15 K, x2 = 0): 1.16 ± 0.04 mPa·s; mass density ([2]; 333.15 K, x2 = 0): 996.71 ± 2.9 kg/m3; viscosity ([2]; 333.15 K, x2 = 0): 1.022 ± 0.036 mPa·s; mass density ([2]; 343.15 K, x2 = 0): 987.75 ± 3 kg/m3; viscosity ([2]; 343.15 K, x2 = 0): 0.908 ± 0.032 mPa·s; mass density ([2]; 353.15 K, x2 = 0): 978.76 ± 3 kg/m3; viscosity ([2]; 353.15 K, x2 = 0): 0.813 ± 0.029 mPa·s"
CCc1ccccc1 [ethylbenzene],859.95 ± 3.6 kg/m3,0.598 ± 0.016 mPa·s,851.14 ± 3.7 kg/m3,0.537 ± 0.015 mPa·s,842.3 ± 3.8 kg/m3 and 842.27 ± 3.8 kg/m3,0.483 ± 0.014 mPa·s,833.34 ± 4 kg/m3,0.437 ± 0.013 mPa·s,824.26 ± 4.1 kg/m3,0.397 ± 0.012 mPa·s,815.18 ± 4.3 kg/m3,0.366 ± 0.012 mPa·s,–
CCc1ccccc1 [ethylbenzene] + O=S1(=O)CCCC1,–,–,–,–,–,–,–,–,–,–,–,–,"mass density ([2]; 303.15 K, x1 = 1): 859.95 ± 3.6 kg/m3; viscosity ([2]; 303.15 K, x1 = 1): 0.598 ± 0.016 mPa·s; mass density ([2]; 313.15 K, x1 = 1): 851.14 ± 3.7 kg/m3; viscosity ([2]; 313.15 K, x1 = 1): 0.537 ± 0.015 mPa·s; mass density ([2]; 323.15 K, x1 = 1): 842.27 ± 3.8 kg/m3; viscosity ([2]; 323.15 K, x1 = 1): 0.483 ± 0.014 mPa·s; mass density ([2]; 333.15 K, x1 = 1): 833.34 ± 4 kg/m3; viscosity ([2]; 333.15 K, x1 = 1): 0.437 ± 0.013 mPa·s; mass density ([2]; 343.15 K, x1 = 1): 824.26 ± 4.1 kg/m3; viscosity ([2]; 343.15 K, x1 = 1): 0.397 ± 0.012 mPa·s; mass density ([2]; 353.15 K, x1 = 1): 815.18 ± 4.3 kg/m3; viscosity ([2]; 353.15 K, x1 = 1): 0.366 ± 0.012 mPa·s"
CCCCCCCC [octane],695.79 ± 3.1 kg/m3,0.472 ± 0.014 mPa·s,687.59 ± 3.2 kg/m3,0.422 ± 0.013 mPa·s,679.34 ± 3.2 kg/m3,0.38 ± 0.012 mPa·s,670.98 ± 3.3 kg/m3,0.343 ± 0.011 mPa·s,662.59 ± 3.4 kg/m3,0.314 ± 0.011 mPa·s,654.05 ± 3.5 kg/m3,0.287 ± 0.01 mPa·s,mass density ([1]; 293.15 K): 703.88 ± 3 kg/m3; viscosity ([1]; 293.15 K): 0.534 ± 0.015 mPa·s; mass density ([1]; 298.15 K): 699.83 ± 3.1 kg/m3; viscosity ([1]; 298.15 K): 0.501 ± 0.014 mPa·s; mass density ([1]; 363.15 K): 645.68 ± 3.5 kg/m3; viscosity ([1]; 363.15 K): 0.261 ± 0.01 mPa·s
CCCCCCCC [octane] + C=Cc1ccccc1,–,–,–,–,–,–,–,–,–,–,–,–,"mass density ([2]; 293.15 K, x2 = 0): 703.88 ± 3 kg/m3; viscosity ([2]; 293.15 K, x2 = 0): 0.534 ± 0.015 mPa·s; mass density ([2]; 298.15 K, x2 = 0): 699.83 ± 3.1 kg/m3; viscosity ([2]; 298.15 K, x2 = 0): 0.501 ± 0.014 mPa·s; mass density ([2]; 303.15 K, x2 = 0): 695.79 ± 3.1 kg/m3; viscosity ([2]; 303.15 K, x2 = 0): 0.472 ± 0.014 mPa·s; mass density ([2]; 313.15 K, x2 = 0): 687.59 ± 3.2 kg/m3; viscosity ([2]; 313.15 K, x2 = 0): 0.422 ± 0.013 mPa·s; mass density ([2]; 323.15 K, x2 = 0): 679.34 ± 3.2 kg/m3; viscosity ([2]; 323.15 K, x2 = 0): 0.38 ± 0.012 mPa·s; mass density ([2]; 333.15 K, x2 = 0): 670.98 ± 3.3 kg/m3; viscosity ([2]; 333.15 K, x2 = 0): 0.343 ± 0.011 mPa·s; mass density ([2]; 343.15 K, x2 = 0): 662.59 ± 3.4 kg/m3; viscosity ([2]; 343.15 K, x2 = 0): 0.314 ± 0.011 mPa·s; mass density ([2]; 353.15 K, x2 = 0): 654.05 ± 3.5 kg/m3; viscosity ([2]; 353.15 K, x2 = 0): 0.287 ± 0.01 mPa·s; mass density ([2]; 363.15 K, x2 = 0): 645.68 ± 3.5 kg/m3; viscosity ([2]; 363.15 K, x2 = 0): 0.261 ± 0.01 mPa·s"
C=Cc1ccccc1 [styrene],897.45 ± 1.5 kg/m3,0.654 ± 0.017 mPa·s,888.53 ± 1.6 kg/m3,0.577 ± 0.016 mPa·s,879.62 ± 1.6 kg/m3,0.513 ± 0.014 mPa·s,870.64 ± 1.7 kg/m3,0.462 ± 0.013 mPa·s,861.72 ± 1.8 kg/m3,0.419 ± 0.013 mPa·s,852.68 ± 1.9 kg/m3,0.381 ± 0.012 mPa·s,mass density ([1]; 293.15 K): 906.29 ± 1.4 kg/m3; viscosity ([1]; 293.15 K): 0.749 ± 0.019 mPa·s; mass density ([1]; 298.15 K): 901.86 ± 1.4 kg/m3; viscosity ([1]; 298.15 K): 0.699 ± 0.018 mPa·s; mass density ([1]; 363.15 K): 843.99 ± 1.9 kg/m3; viscosity ([1]; 363.15 K): 0.349 ± 0.011 mPa·s
O=S1(=O)CCCC1 [sulfolane],1260.8 ± 6.4 kg/m3,10.07 ± 0.32 mPa·s,1251.9 ± 6.3 kg/m3,7.808 ± 0.25 mPa·s,1243.36 ± 6.2 kg/m3,6.194 ± 0.2 mPa·s,1234.62 ± 6 kg/m3,5.009 ± 0.17 mPa·s,1225.92 ± 5.9 kg/m3,4.126 ± 0.14 mPa·s,1216.8 ± 5.8 kg/m3,3.44 ± 0.12 mPa·s,–
